Consider 24 compounds from paper PMC11357446, “Searching for Novel HDAC6/Hsp90 Dual Inhibitors with Anti-Prostate Cancer Activity: In Silico Screening and In Vitro Evaluation” (Pharmaceuticals, 2024).

One assay deals with LNCaP prostate cancer cells. Nature of the assay: Cell viability assay (PrestoBlue) on LNCaP cells. It counts as cell-based, human. Particulars: Homo sapiens, LNCaP, 72 h, 72 h treatment; PrestoBlue; mean of three independent experiments ± SEM; read-out: LNCaP GI50. As for the experimental part:
(§1) The human prostate cancer cell line PC-3 (ATCC Cat# CRL-1435) was grown in Ham’s F12 (Biowest, Nuaillé, France) medium, while the human prostate cancer cell line LNCaP (ATCC Cat# CRL-1740) was grown in RPMI 1640 (Biowest, Nuaillé, France) medium. Both media were supplemented with 10% Fetal Bovine Serum (FBS, Gibco, Fisher Scientific Italia, Segrate, Italy), 2 mM glutamine, 100 U/mL penicillin, and 100 μg/mL streptomycin. PC-3 and LNCaP cells were maintained at 37 °C in a humidified 5% CO2 atmosphere.
(§2) PC-3 and LNCaP cells were seeded at a density of 4000 and 6000 cells/well into a 96-well plate, respectively, together with a calibration curve of known cell numbers. The following day, the cells were treated with the indicated test compounds at different concentrations starting at 75μM with 2-fold serial dilutions. Cell viability was evaluated after 72h by colorimetric MTT (PC-3) or PrestoBlue™ (LNCaP) cell viability reagents. A total of 0.5 mg/mL of thiazolyl blue tetrazolium bromide (MTT) (Sigma-Aldrich, St. Louis, MO, USA) in Ham’s F12 medium was added to the wells, and the plate was incubated at 37 °C for 2 h. Medium containing unconverted MTT was removed, and 100 μL of MTT solvent (4 mM HCl, 0.1% NP40, in isopropyl alcohol) was added to the wells in order to solubilize MTT crystals. After 15 min of incubation at room temperature, the absorbance values at 570 nm were obtained with a Multiskan FC Microplate Photometer (Thermo Fisher Scientific, Waltham, MA, USA). PrestoBlue reagent (#A13261, Thermo Fisher Scientific, Waltham, MA, USA) was added to the medium (1:10 v/v) and incubated for 1 h at 37 °C. Cell viability was calculated by quantifying PrestoBlue reduction by measuring the absorbance at 570 and 620 nm, according to the manufacturer’s protocol. The viability of untreated cells was arbitrarily set at 100%, and the concentration at which cellular growth is inhibited by 50% (GI50) was determined. Three independent experiments were performed.
For `COC1=C2C[C@@H](C)C[C@H](OC)[C@H](O)[C@@H](C)/C=C(\C)[C@H](OC(N)=O)[C@@H](OC)/C=C\C=C(/C)C(=O)NC(=CC1=O)C2=O` [Geldanamycin], the GI50 was found to be 50 ± 20 nM.

Turning to `CN1CCc2c(c3ccccc3n2Cc2ccc(C(=O)NO)cc2)C1` [Tubastatin-A], the GI50 was 5900 ± 1500 nM.

The same assay, now with this note: Homo sapiens, LNCaP, 72 h, read-out: LNCaP GI50.
As for `O=C(CCCCCCC(=O)Nc1ccccc1)NO` [SAHA, Vorinostat], the GI50 stood at 1300 ± 300 nM.

For another assay, the system named is PC-3 prostate cancer cells. Nature of the assay: Cell viability assay (MTT) on PC-3 cells. It counts as cell-based, human. Conditions: Homo sapiens, PC-3, 72 h, 72 h treatment; MTT; mean of three independent experiments ± SEM; read-out: PC-3 GI50. As to the method:
as §1, §2
In the case of `COC1=C2C[C@@H](C)C[C@H](OC)[C@H](O)[C@@H](C)/C=C(\C)[C@H](OC(N)=O)[C@@H](OC)/C=C\C=C(/C)C(=O)NC(=CC1=O)C2=O` [Geldanamycin], the concentration for 50% growth inhibition (GI50) amounted to 30 ± 20 nM.

Take `CN1CCc2c(c3ccccc3n2Cc2ccc(C(=O)NO)cc2)C1` [Tubastatin-A]: the GI50 was 11100 ± 1600 nM.

The same assay, now with this note: Homo sapiens, PC-3, 72 h, read-out: PC-3 GI50.
On to `O=C(CCCCCCC(=O)Nc1ccccc1)NO` [SAHA, Vorinostat], for which the GI50 turned out to be 1900 ± 200 nM.

A further assay concerns acetylated tubulin (Ac-Tub) in LNCaP cells. Nature of the assay: Western blot of acetylated α-Tubulin in LNCaP cells. Format: cell-based, human. Particulars: 24 h at GI50 concentration, normalized with Tubulin. As to the method:
To assess whether the observed antiproliferative activity of the selected compounds was a consequence of HDAC6-targeting, we examined the effect of the cell treatments on the expression levels of acetylated tubulin (Ac-Tub), a well-known HDAC6 target. LNCaP and PC-3 cells were treated with the tested compounds at their GI50 concentrations, and SDS-PAGE and western blot were performed. In addition, the acetylation levels of histone H3, which are mainly regulated by HDAC1, were also evaluated in order to exclude potential class I-HDAC off-target activities. We used Tubastatin-A and Geldanamycin as reference controls for cellular effects resulting from HDAC6- and Hsp90-inhibition, respectively. The results in Figure 2 show a significant increase in α-Tubulin acetylation in LNCaP cells after treatments with compounds 8, 11 and 18. Indeed, these compounds triggered a 2.9-, 5.1-, and 2.5-fold increase, respectively, compared to the control (DMSO). […].
Figure 2 Western blot analysis and relative quantification of the expression levels of acetylated-Tubulin (Ac-TUB), acetylated H3 (Ac-H3), and HSP70 in LNCaP (A,B) and PC-3 (C,D) cells treated for 24 h at GI50 concentration. Tubastatin-A was used as HDAC6-specific positive control, Geldanamycin (GELDA) as HSP90-specific positive control, and SAHA as pan-HDAC inhibitor. Protein expression was normalized with Tubulin levels (Ac-TUB and HSP70) or total H3 (Ac-H3). Quantification is reported as fold change in treated cells versus DMSO control (CTR), arbitrarily set at 1 (one sample t-test p-values: * p < 0.05, ** p < 0.01, *** p < 0.001, **** p < 0.0001; n = 3).
Cell treatment. PC-3 and LNCaP cells were grown in 12-well tissue-culture plates and treated with test compounds at the evaluated GI50 concentration for each candidate inhibitor for 24 h. DMSO was used as a negative control, while Tubastatin-A and Geldanamycin were used as positive controls for HDAC6 and Hsp90 inhibition, respectively. Vorinostat (SAHA) was used as a pan-HDACi control. […] Protein quantitation was performed with Pierce Detergent Compatible Bradford Assay (#23246, Thermo Fisher Scientific, MA, USA), and equivalent amounts of cellular extracts were resolved by SDS-PAGE, transferred to PVDF or Nitrocellulose membrane with Trans-Blot Turbo Transfer System (Bio-Rad, Hercules, CA, USA), and immunoblotted with the following primary antibodies, diluted 1:1000 in 1× TBS with 1 mg/mL BSA: Anti-Histone H3 (#PA5-16183, Invitrogen, Thermo Fisher Scientific, MA, USA), Anti-acetylated histone H3 (#sc-518011, Santa Cruz Biotechnology, Inc., Dallas, TX, USA), Anti-Tubulin (#E-AB-20073, Elabscience, Houston, TX, USA), Anti-acetylated α-tubulin (#sc-23950, Santa Cruz), and Anti-HSP70 (#4872S, Cell Signaling Technology, Inc., Danvers, MA, USA). […]
`CN1CCc2c(c3ccccc3n2Cc2ccc(C(=O)NO)cc2)C1` [Tubastatin-A]: the “α-Tubulin acetylation, fold increase compared to the control (DMSO)” value was determined as 3.3 fold.

Another assay addresses HDAC6 (UniProt ID: Q9UBN7).
Experiment: not given
The arrangement: method as in ChEMBL [62]. Particulars: ChEMBL record on recombinant protein; ref ChEMBL [62]; read-out: HDAC6 IC50 (Standard Value); cited from earlier work.
As to `O=C(Nc1ccncc1)c1ccc(-c2noc(C(F)(F)F)n2)cc1` [CHEMBL3692583], the IC50 was 2100 nM.

Turning to `CC(C)(C)c1ccc(CN2Cc3ccc(/C=C/C(=O)NO)cc3C2=O)cc1` [CHEMBL247218], the half-inhibitory concentration (IC50) was 990 nM.

As to `O=C(NC1CCCCC1O)c1ccc(-c2noc(C(F)(F)F)n2)cc1` (stereo not shown) [CHEMBL3692597], the IC50 was 7100 nM.

Turning to `Cc1c(C)n(Cc2ccc(C(=O)NO)cc2)c2ccccc12` [CHEMBL3971436], the IC50 is 4.08 nM.

For the compound `O=C(NCc1ccc(CN2CCOCC2)cc1)c1ccc(-c2noc(C(F)(F)F)n2)cc1` [CHEMBL3692580], the IC50 was 5700 nM.

As to `N#Cc1cc(NC(=O)c2ccc(-c3noc(C(F)(F)F)n3)cc2)ccn1` [CHEMBL3692609], the IC50 was 6100 nM.

For `CC(C)c1nc2ccccc2n1Cc1ccc(C(=O)NO)cc1` [CHEMBL3926575], the IC50 is 47 nM.

Turning to `CN1CC(=O)N2Cc3c(c4ccccc4n3Cc3ccc(C(=O)NO)cc3)CC2C1=O` (stereo not shown) [CHEMBL4292944], the IC50 was 13.6 nM.

`CC(C)CN1CC(=O)N2Cc3c(c4ccccc4n3Cc3ccc(C(=O)NO)cc3)CC2C1=O` (stereo not shown) [CHEMBL4284297]: the half-maximal inhibitory concentration (IC50) is 3.78 nM.

Regarding `C[C@H](CN1CCOCC1)NC(=O)c1ccc(-c2noc(C(F)(F)F)n2)cc1` [CHEMBL3692680], the IC50 was 6700 nM.

`Cc1cc(NC(=O)c2ccc(-c3noc(C(F)(F)F)n3)cc2F)cc(C)n1` [CHEMBL3692624]: the IC50 was 2500 nM.

Consider `O=C(Nc1ccnc(C(F)(F)F)c1)c1ccc(-c2noc(C(F)(F)F)n2)cc1` [CHEMBL3692610], for which the half-inhibitory concentration (IC50) was 8600 nM.

On to `O=C(/C=C/c1ccc2c(c1)C(=O)N(Cc1ccccc1)C2)NO` [CHEMBL247217], for which the IC50 is 230 nM.

With `O=C(Cc1ccc(-c2noc(C(F)(F)F)n2)cc1)N1CCOCC1` [CHEMBL3688148], the IC50 is 5500 nM.

As to `O=C(NO)c1ccc(CN2C(=O)CNC(=O)[C@H]2Cc2c[nH]c3ccccc23)cc1` [CHEMBL481719], the IC50 was 110 nM.

Regarding `C[C@H](CN1CCOCC1)NC(=O)c1ccc(-c2noc(C(F)(F)F)n2)cc1F` [CHEMBL3692681], the IC50 was 3200 nM.

As to `Cc1cc(NC(=O)c2ccc(-c3noc(C(F)(F)F)n3)cc2)cc(C)n1` [CHEMBL3692604], the IC50 is 5300 nM.

For `O=C(Nc1cccnc1)c1ccc(-c2noc(C(F)(F)F)n2)cc1` [CHEMBL3692584], the IC50 was 4800 nM.

For the compound `CC(C)(C)c1cc2ccccc2n1Cc1ccc(C(=O)NO)cc1` [CHEMBL4468860], the IC50 is 2000 nM.

With `COc1cc(NC(=O)c2ccc(-c3noc(C(F)(F)F)n3)cc2)ccn1` [CHEMBL3692603], the IC50 was 8300 nM.

`C[C@H](CN1CCCCC1)NC(=O)c1ccc(-c2noc(C(F)(F)F)n2)cc1F` [CHEMBL3692663]: the IC50 was 3000 nM.
